Measurements as given in paper PMC2361176, “Inhibitory effects of retinoic acid metabolism blocking agents (RAMBAs) on the growth of human prostate cancer cells and LNCaP prostate tumour xenografts in SCID mice” (British Journal of Cancer, 2006).

Molecular target: T1, CYP26 (Homo sapiens, UniProt O43174)
T1 construct: LNCaP cells were incubated with 1 μM ATRA for 24 h to induce the CYP26 enzyme; endogenous in cells; host or cells: LNCaP human prostate cancer cells, pre-treated with 1 μM ATRA
T1 sequence (O43174 1-497): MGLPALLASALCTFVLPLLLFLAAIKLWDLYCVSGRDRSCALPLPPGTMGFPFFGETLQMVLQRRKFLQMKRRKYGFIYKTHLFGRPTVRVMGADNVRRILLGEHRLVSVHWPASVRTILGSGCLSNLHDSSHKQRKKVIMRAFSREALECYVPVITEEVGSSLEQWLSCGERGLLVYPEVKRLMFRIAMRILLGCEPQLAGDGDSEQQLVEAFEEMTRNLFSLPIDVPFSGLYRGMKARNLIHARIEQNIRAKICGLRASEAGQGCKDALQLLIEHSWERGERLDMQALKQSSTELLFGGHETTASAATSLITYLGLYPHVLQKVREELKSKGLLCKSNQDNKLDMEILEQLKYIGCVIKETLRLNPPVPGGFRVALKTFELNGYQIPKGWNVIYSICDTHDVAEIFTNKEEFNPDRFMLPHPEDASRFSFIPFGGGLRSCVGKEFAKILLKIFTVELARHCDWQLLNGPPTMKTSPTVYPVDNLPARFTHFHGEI
Assay: Cellular microsomal CYP26 assay (ATRA metabolism of microsomes prepared from T47D cells)
Format: biochemical

For CC1=C(/C=C/C(C)=C/C=C/C(C)=C/C(=O)n2ccnc2)C(C)(C)CCC1n1ccnc1 (centres unmarked) [VN/50-1], the “fold higher potency in microsomes compared to the cellular IC50 value” (microsomal vs cellular IC50) was roughly 13 fold and the IC50 (microsomes, read-out: IC50, inhibition of ATRA metabolism of microsomes prepared from T47D cells previously exposed to ATRA) was 7 ± 1.2 nM.
